| Compound | melting point |
| --- | --- |
| O=C(O)c1cn(-c2nnc(C(F)(F)F)s2)c2cc(F)c(F)cc2c1=O | 272 to 276 °C |
| N#Cc1ccc2nc(C(F)(F)F)[nH]c2c1 | 194 to 196 °C |
| Cc1ccccc1-c1nn(C(C)(C)C(=O)N(C)C)cc1C | 145 to 147 °C |
| CCCCOC(=Cn1ccnc1)c1ccc(Cl)cc1Cl | 205 to 207 °C |
| O=S(=O)(CC1CCC1)c1nc[nH]n1 | 125 to 134 °C |
| CCOC(=O)C(=Cc1cccc([N+](=O)[O-])c1)C(=O)CCl | 108 to 111 °C |
| CCCCCc1c(C(C)=O)nc(C(C)C)c(CO)c1-c1ccc(F)cc1 | 69 to 70 °C |
| COc1ccc2cc3c(=O)n(C)cc(C(=O)NCCN(C)C)c3nc2c1 | 213 to 215 °C |
| CCOC(=O)c1nn(-c2ccc(CP(=O)(OCC)OCC)cc2)nc1C | 60 to 62 °C |
| CCN(CC)c1nc(Cl)nc(Cl)n1 | 77 to 79 °C |
| CCCCCCCCCCCCCCOc1ccc(CC(=O)Nc2cccc(C(=O)OCC)c2)cc1 | 91 to 94 °C |
| COC(=O)C1=C(O)c2c(c3cc(OC)ccc3n2C)S(=O)(=O)N1C | 200 to 201 °C |
| CCNC(=O)C(C)NS(=O)(=O)c1ccc(C)cc1 (racemic) | 106 to 107 °C |
| COc1cc2c(cc1Cl)C(c1ccccc1Cl)C(=O)N2 (configuration not stated) | 243 to 247 °C |
| Cc1cc2ncnn2c(N2CCN(C)CC2)n1 | 95 to 98 °C |
| CCOc1cc(Cc2cnc(N)nc2N)cc2c1OC(C)(C)C=C2C(C)(C)O | 209 to 210 °C |

Next, values leading:

| melting point | Compound |
| --- | --- |
| 205 to 207 °C | Cc1sc2c(Br)c3ccccc3c(-c3cc(Br)c(O)c(NC(=O)OC(C)(C)C)c3)c2c1C |
| 179 to 180 °C | COCCNS(=O)(=O)c1cccc(Nc2nccc(-c3sc(N)nc3C)n2)c1 |
| 136 to 137 °C | CCOc1ccc(CC2CCN(CCCCNC(=O)c3ccc(-c4ccc(C(F)(F)F)cc4)cc3)CC2)c(OCC)c1 |
| 168 to 170 °C | Cc1ccc(-c2nc(-c3ccc(C)cc3C)nc(-c3cc(C(C)(C)c4ccccc4)c(O)cc3O)n2)c(C)c1 |
| 195 to 197 °C | CC(Cc1cccc2ccccc12)(Cc1cccc2ccccc12)C(=O)NC(C)(Cc1c[nH]c2ccccc12)C(=O)O (configuration not stated) |
| 125 to 128 °C | Nc1nc2c(s1)CC(NC(=O)[C@@H]1CCCN1C(=O)CNC(c1ccccc1)(c1ccccc1)c1ccccc1)CC2 (some centres not stated) |
| 60 to 62 °C | CN(C)Cc1ccccc1-c1ccc(Br)cc1 |
| 116 to 119 °C | Nc1noc2cc3c(cc12)C1(CO3)C(=O)N(CC2CCCO2)c2ccccc21 (configuration not stated) |
| 105 °C | COc1nccc(N[C@H]2CC[C@H](c3ccccc3)CC2)c1Br |
| > 270 °C | CN1CCC(C2=C(C#N)C(c3cccc(C#N)c3Br)c3c[nH]nc3N2)CC1 (configuration not stated) |
| 155 to 157 °C | COCC(=O)Nc1c(C(=O)c2cccc(C)c2)[nH]c2cc(Cl)ccc12 |
| 86 to 88 °C | O=C(O)CCCOc1cccc2c1Cc1sc(SCCC(c3ccccc3)c3ccccc3)nc1-2 |
| 140 to 150 °C | COc1ccc2[nH]cc(CC3=CCCN(CCCC(=O)c4cccs4)C3)c2c1 |
| 129 to 132 °C | COc1cc(NC(=O)N(Cc2ccccc2)C2CCCCC2)c(OC(C)=O)c(C(C)(C)C)c1 |
| 138 to 142 °C | O=C(Cn1sc2ccccc2c1=O)N1CCN(C(=O)OCc2ccccc2)CC1 |
| 252 °C | COc1ccc(C(=O)Nc2ccccc2)c2c1oc1ccc(NC(C)=O)cc12 |
| 136 to 138 °C | C#CCn1nc(-c2ccc(SC)cc2)c(-c2ccc(F)cc2)c1C(F)(F)F |
| 165 to 175 °C | NC(=O)C[C@H](NS(=O)(=O)c1ccc2c(c1)Sc1ccccc1O2)C(=O)O |
| 238 to 242 °C | Cn1cnc(S(=O)(=O)Nc2ccc(C(c3c(O)c4c(oc3=O)CCCCCC4)C3CC3)cc2)c1 (configuration not stated) |
| 124 to 125 °C | Cc1oc(-c2ccccc2)nc1COc1ccc(Cn2cc(CCC(=O)O)cn2)cc1 |
| 88.5 to 91.5 °C | COc1ccc(-c2nc(-c3cccn3CC(=O)OC(C)C(C)C)sc2-c2ccc(OC)cc2)cc1 (configuration not stated) |

Reference: a melting point compilation (Tetko et al.; mined from patent text by program, amines drawn as free bases though some values may be those of a salt)
